Earlier results as cited in patent US10576041B2, “Extended relief dosage form” (The Procter & Gamble Company, priority 2016, dated 2020).
Counter-ions that a name gives are not always drawn.

Settings: immediate release; in the human body

Structure (SMILES) | half-life
COc1ccc2c(c1)[C@]13CCCC[C@@H]1[C@H](C2)N(C)CC3 [dextromethorphan hydrobromide] | 3 to 5 h
CN[C@@H](C)[C@@H](O)c1ccccc1 [pseudoephedrine hydrochloride] | 4.3 to 8 h
